Reference: patent publication US20050003007A1, “Method of sterilization of polymeric microparticles” (priority 2003, published 2005)

System: retinitis pigmentosa
Experiment: Subconjunctival injection of tazarotene microsphere suspension into a patient suffering from retinitis pigmentosa
Format: in vivo
Conditions: tazarotene 1 mg in poly(lactide-co-glycolide) microsphere suspension, for the duration of treatment
Experimental: A dose of tazarotene (1 mg) contained in the poly(lactide-co-glycolide) microsphere suspension of Example containing 1 is injected subconjunctivally into a patient suffering from retinitis pigmentosa.

In the case of `CCOC(=O)c1ccc(C#Cc2ccc3c(c2)C(C)(C)CCS3)nc1` [tazarotene], the vision is reported as “Maintenance of vision or a slowing of the progression of vision loss”.
